Series [1] has as its target T1, BCL-XL (Homo sapiens, UniProt Q07817). Nature of the series: 1D 1H-NMR binding assay. Set-up: key to 1D-^1H NMR: +++, Very Active; ++, Active; +, Mild; −, Weak. Particulars: for 1D-^1H NMR: Table 3, BCL-XL 25 μM, compound 200 μM. The method, then: By observing the aliphatic region of the spectra, binding could be readily detected due to chemical shift changes in active site methyl groups of Ile, Leu, Thr, Val or Ala (region between −0.8 and 0.3 ppm). All experiments were performed with a 600 MHz spectrometer Bruker Avance 600 equipped with four rf channels and z-axis pulse-field gradients.
Target sequence in this assay (Q07817 whole entry): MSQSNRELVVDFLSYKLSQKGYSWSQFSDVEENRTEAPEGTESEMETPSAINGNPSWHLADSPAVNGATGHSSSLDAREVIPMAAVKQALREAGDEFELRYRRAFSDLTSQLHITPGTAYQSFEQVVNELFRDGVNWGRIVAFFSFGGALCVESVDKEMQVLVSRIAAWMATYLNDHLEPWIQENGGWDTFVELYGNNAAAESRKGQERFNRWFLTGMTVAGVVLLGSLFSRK

In series [2] the test system is H460 human lung cell line. Put plainly: Cell viability, ATP-LITE assay. Particulars: for IC50: read-out: IC50 inhibiting cell growth, H460; for EC50: Table 3, ATP-LITE assay, read-out: EC50 H460. Format: cell-based. In short, it runs like this:
(§1)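 Human cancer lines were seeded at 2000 (H460, H1299), 3000 (PC3) or 10,000 (RS11846) cells/well in F12 or RPMI1640 with 5% FBS. Compounds were added in 0.1% DMSO 24 h after seeding. Viability was read by ATP-LITE luminescence after 72 h and normalized to DMSO controls.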

The subject of series [3] is BP3 human B-cell lymphoma cell line. Put plainly: Annexin V-FITC and propidium iodide assay. Format: cell-based. Particulars: for EC50: Annexin V-FITC and propidium iodide assay, read-out: EC50 BP3.
Series [4] concerns Bax/Bak double knockout mouse embryonic fibroblast cells (MEF/DKO). Nature of the series: FITC-Annexin V/PI cytotoxicity in Bax/Bak double knockout cells. Format: cell-based. Particulars: 10 μM.
Method: MEF/WT and MEF/DKO cells were seeded in 24-well plate at a seeding density of half a million per well (in 1 ml of DMEM medium supplemented by 10% FCS). […] On the following day, floating cells were pooled with adherent cells harvested after brief incubation with 0.25% Trypsin/EDTA solution (Gibco/In-Vitrogen Inc.). Cells were centrifuged and supernatant was discarded, and cell pellet was re-suspended with 0.2 ml of Annexin-V binding buffer, followed by addition of 1 μl Annexin-FITC and 1 μl PI (propidium iodide). The percentage of viable cells was determined by a 3-color FACSort instrument and data analyzed by Flow-Jo program, scoring Annexin V-negative, PI-negative as viable cells.
In another series the test system is Balb/c mice. An excerpt: Upon conclusion of the study, mice were euthanized by CO2, and vital organs were harvested and fixed with z-FIX solution for 3 days at room temperature, rinsed in PBS three times, for further histological evaluation.
The target in series [5] is T1, BCL-XL. Nature of the series: Competitive fluorescence polarization assay (FPA), Bak BH3 peptide. The series is classed as binding. The arrangement: 100 nM GST-BCL-XL ΔTM protein. The essentials: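 100 nM GST-BCL-XL ΔTM preincubated with compound in PBS pH 7.4 for 10 min at room temperature, then FITC-Bak BH3 peptide added. Polarization read after 10 min. IC50 from sigmoidal dose-response fit; mean ± SE of three independent experiments.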
Target sequence in this assay (Q07817 1-209 limits assumed): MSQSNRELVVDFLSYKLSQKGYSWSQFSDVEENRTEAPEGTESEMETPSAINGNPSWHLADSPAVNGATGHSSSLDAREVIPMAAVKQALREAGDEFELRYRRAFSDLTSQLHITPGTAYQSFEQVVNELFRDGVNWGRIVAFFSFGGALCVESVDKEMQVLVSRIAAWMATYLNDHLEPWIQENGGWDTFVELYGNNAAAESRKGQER
(In fluorescence polarisation assays a small probe gives low polarisation when free and higher when bound to something large.)

A short description of series [6]: Chemical stability of solid compounds at room temperature (HPLC, LCMS). Particulars: in air, Apogossypol in the absence of ascorbic acid. The text has this:
The stability of compound was monitored using a combination of HPLC and LCMS.

Another series concerns the target T2, Bfl-1 (Homo sapiens, UniProt Q16548).
T2 sequence (Q16548 1-175): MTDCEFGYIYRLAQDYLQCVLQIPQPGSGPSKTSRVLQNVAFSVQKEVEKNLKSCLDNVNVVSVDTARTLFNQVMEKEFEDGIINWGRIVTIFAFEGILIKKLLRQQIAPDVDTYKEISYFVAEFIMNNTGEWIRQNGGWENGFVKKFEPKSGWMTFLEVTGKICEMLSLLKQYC
Put plainly: Competitive fluorescence polarization assay (FPA). The series is classed as binding.

The subject of another series is B6Bcl-2 transgenic mice. The conditions noted are these: for percentage of maximum reduction in spleen weight (maximal biological activity): maximum shrinkage no more than 50%; for Tox: Bcl-2 transgenic mouse, single ip injection 72 μmol/kg. In short, it runs like this: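 B6 line BCL-2 transgenic mice (human BCL-2 fused to IgH locus/enhancer, Balb/c background) sacrificed 24 h post-treatment by lethal i.p. Avertin. Spleen removed and weighed, fixed 3 days in z-FIX for H&E and TUNEL histology.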

A short description of series [7]: Liver microsomal stability. Format: in vitro ADME, rat. Particulars: Table 6; rat liver microsomes, 1 h. The text has this:
Liver Microsomal Stability.

A short description of the next series: Plasma stability. The series is classed as in vitro ADME, rat. Particulars: for Plasma stability (T = 1 h): Table 6, rat plasma. The method, then:
Plasma Stability. A 20 μL aliquot of a 10 mM solution in DMSO of the test compound was added to 2.0 mL of heparinized rat plasma (Lampire, P1-150N) to obtain a 100 μM final solution. The mixture was incubated for 1 h at 37.5° C. Aliquots of 100 μL were taken (0, 30 min, 1 h) and diluted with 200 μL of MeOH containing internal standard.

For series [8], the target named is T1, BCL-XL. Put plainly: Isothermal titration calorimetry (ITC). Format: binding. The essentials: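 Isothermal titration calorimetry at 25 °C with BCL-XL at 25-100 μM in 20 mM sodium phosphate pH 7.4 plus 5-10% DMSO. Titrant at 10-15 fold the protein concentration in the same buffer.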
Target sequence in this assay (Q07817 whole entry): as the sequence (Q07817 whole entry) above
For orientation: In ITC the heat of successive injections is recorded.

For the next series, the target named is Bcl-2 (Homo sapiens, UniProt P10415). Nature of the series: Competitive fluorescence polarization assay (FPA), Bim BH3 peptide. The series is classed as binding.
Bcl-2, sequence (P10415 whole entry): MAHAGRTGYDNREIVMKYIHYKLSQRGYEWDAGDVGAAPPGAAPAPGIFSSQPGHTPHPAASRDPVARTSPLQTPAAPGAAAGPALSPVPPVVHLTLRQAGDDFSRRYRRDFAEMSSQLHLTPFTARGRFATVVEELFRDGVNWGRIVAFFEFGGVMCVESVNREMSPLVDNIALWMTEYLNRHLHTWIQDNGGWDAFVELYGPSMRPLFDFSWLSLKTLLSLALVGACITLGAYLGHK
Series [9] has as its system human lymphoma RS11846 cell line. Nature of the series: Apoptosis, Annexin V-FITC and propidium iodide assay. Format: cell-based. The conditions noted are these: Annexin V-FITC and propidium iodide assay, read-out: EC50 RS11846.
Another series deals with H1299 cell line. Nature of the series: Cell viability, ATP-LITE assay. The series is classed as cell-based, human. The conditions noted are these: for EC50: Table 3, ATP-LITE assay, read-out: EC50 H1299. In short, it runs like this:
as §1

The next series deals with PC3ML cells. Put plainly: Cell viability, ATP-LITE assay. The conditions noted are these: Table 3, ATP-LITE assay, heading: EC50 PC3ML, read-out: EC50 PC3ML. Format: cell-based, human. The essentials:
as §1

A further series addresses Mcl-1 (Homo sapiens, UniProt Q07820). Nature of the series: Competitive fluorescence polarization assay (FPA), Bim BH3 peptide. Format: binding.
A further series concerns BCL-2 transgenic mice. Nature of the series: Oral efficacy study in BCL-2 transgenic mice, QDx5 for 3 weeks. Particulars: low dose 0.06 mmol/kg oral. How it is done:
The volume of administration was 10 ml/kg, i.e., typically 0.2 mL per 20 gm mouse. […] Age-matched, sex-matched mice were typically dosed 5 times weekly, using a regiment of daily dosing 5 consecutive days (Monday through Friday), followed by resting for 2 days, before resuming dosing. […] At conclusion of treatments, mice were sacrificed via intra-peritoneal (i.p.) injection of 0.7 ml of Avertin and whole blood was collected into Yellow-Top Serum Separator tubes (Becton Dickinson Vacutainer Systems Becton Dickinson and Company, Franklin Lakes, N.J. 07417-1885). Spleens were removed and weighed.
Age-matched and sex-matched BCL-2 transgenic mice were used for efficacy studies. BCL-2 transgenic mice spontaneously developed low grade B-cell lymphoma as characterized by splenomegaly, as a function of time. In BCL-2 transgenic mice, the disease progression can be divided into two stages; at the first stage, the disease is characterized by splenomegaly as a result of expansion of B-cells in spleen due to over-expressed BCL-2 in B6 mice, and at the second stage, another genetic hit(s) may strike, resulting in disseminated lymphoma as characterized by bulky lymphadenopathy as well as splenomegaly.
In this study, BCL-2 transgenic mice at the first stage were used for this efficacy study. […] At conclusion of treatment, BCL-2 transgenic mice were sacrificed via intraperitoneal injection of 0.7 ml of avertin (anesthetic solution) and spleen was removed and weighed. Splenocytes were isolated by the use of mouse erythrocyte lysing kit (RD Systems). Total splenocyte count was determined by trypane blue exclusion assays. % B-cell count was determined by FACS analysis after staining cells with CD-5, a B-cell marker.

Three compounds from patent US8039668B2, “Naphthalene-based inhibitors of anti-apoptotic proteins” (Burnham Institute for Medical Research, priority 2008, dated 2011) can be followed below.

Read-outs that look alike come from different tables or passages of the source.

One may read the IC50 as the concentration that gives 50% inhibition. In general, EC50 refers to the concentration giving half of the maximal effect. Usually Kd stands for the concentration at which binding is half-saturated.

Mcl-1, sequence (Q07820 whole entry): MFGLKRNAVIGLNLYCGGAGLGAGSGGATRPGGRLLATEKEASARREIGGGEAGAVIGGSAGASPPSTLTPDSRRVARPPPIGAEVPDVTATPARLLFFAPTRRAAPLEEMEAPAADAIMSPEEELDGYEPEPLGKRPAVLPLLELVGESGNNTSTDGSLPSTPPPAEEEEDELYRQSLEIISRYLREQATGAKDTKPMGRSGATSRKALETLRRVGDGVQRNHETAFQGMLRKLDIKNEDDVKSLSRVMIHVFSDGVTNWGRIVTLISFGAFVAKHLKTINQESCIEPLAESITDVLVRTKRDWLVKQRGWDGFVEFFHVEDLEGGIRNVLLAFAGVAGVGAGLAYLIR

For the compound `Cc1cc2c(C(=O)NCC(C)c3ccccc3)c(O)c(O)cc2c(O)c1-c1c(C)cc2c(C(=O)NCC(C)c3ccccc3)c(O)c(O)cc2c1O` (centres unmarked) [Compound 8r, 1,1′,6,6′,7,7′-hexahydroxy-3,3′-dimethyl-N^5,N^5′-bis(2-phenylpropyl)-2,2′-binaphthyl-5,5′-dicarboxamide], the “1D-^1H NMR” value at BCL-XL [1] is on record as “++”. The IC50 in series [2] (Homo sapiens, NCI-H460) was 0.33 µM. Moreover, the “times more potent than Apogossypol, H460” value in series [2] (vs Apogossypol) was 7-10. Besides, in series [3] (Homo sapiens, B-cell), the EC50 is 0.66 µM. The “times more potent than Apogossypol, BP3” value in series [3] (vs Apogossypol) was 7-10. In [4], the MEF/DKO cells killed is recorded as 20-35%. For the same compound, the weight loss result in the series on Balb/c mice (mouse, in vivo, ip, 50 mg/kg) was “around 13%”. In addition, the mortality result in the series with Balb/c mice (single ip 100, 75, 50, 25 and 12.5 mg/kg, 14 days) is given as “All mice were alive after 14 days”. Moreover, at BCL-XL [5] (vs Apogossypol), the “times more effective than Apogossypol, FP Bcl-XL” value is listed as 5. Also, in series [6], the “degraded after 60 days at room temperature” value is 10%. At Bfl-1 (vs Apogossypol), the “times more potent than Apogossypol, FP Bfl-1” value is recorded as “approximately 10”. The GI toxicity entry in the series with B6Bcl-2 transgenic mice (B6Bcl-2 transgenic (Balb/c background), mouse, in vivo, 42 mg/kg, 24 h) is recorded as “mild signs of GI toxicity”. For the same compound, in the series on B6Bcl-2 transgenic mice (mouse, in vivo, 42 mg/kg), the “average weight loss of mice” value was determined as 7.8%. In addition, the “percentage of maximum reduction in spleen weight (maximal biological activity)” value in the series on B6Bcl-2 transgenic mice (single ip 72 μmol/kg) is reported as 85-95%. Moreover, in the series on B6Bcl-2 transgenic mice (single mouse, single ip 72 μmol/kg), the spleen weight reduction result is recorded as “more than 40%”. For the same compound, the “Microsomal Stability (T = 1 h)” value in series [7] was 76%. Moreover, the “degraded after 1 hour incubation in rat plasma” value in “Plasma stability” (1 hour) turned out to be 4%. Further, the “Plasma stability (T = 1 h)” value in the series “Plasma stability” is listed as 96%. Further, the “times more potent than Apogossypol, ITC Bcl-XL” value on BCL-XL [8] (vs Apogossypol) worked out at 15.
In the case of `CCc1ccc(CCNC(=O)c2c(O)c(O)cc3c(O)c(-c4c(C)cc5c(C(=O)NCCc6ccc(CC)cc6)c(O)c(O)cc5c4O)c(C)cc23)cc1` [Compound 8q, N^5,N^5′-bis(4-ethylphenethyl)-1,1′,6,6′,7,7′-hexahydroxy-3,3′-dimethyl-2,2′-binaphthyl-5,5′-dicarboxamide], the IC50 at Bcl-2 worked out at 0.67 µM; in series [2] (Homo sapiens, NCI-H460), 0.4 µM; in [3] (Homo sapiens, B-cell, read-out: IC50 inhibiting cell growth, BP3), 0.2 µM; with H1299 cell line (Homo sapiens, NCI-H1299, read-out: IC50 cell inhibition, H1299), 0.36 µM; on Mcl-1, 0.59 µM; on BCL-XL [5] (read-out: IC50 FPA Bcl-XL), 0.93 µM. Further, the IC50 on Bfl-1 is 1.3 µM. At BCL-XL [1], the “1D-^1H NMR” value is “+++”. Also, the concentration giving a half-maximal response (EC50) was 0.4 µM in [2] (Homo sapiens, NCI-H460); 3 to 5.8 µM in [9] (Homo sapiens); 3 µM in [9] (Homo sapiens, Table 3, heading: EC50 RS11846); 0.2 µM in series [3] (Homo sapiens, B-cell, Table 3); 0.36 µM in the series with H1299 cell line (Homo sapiens, NCI-H1299); 1.7 µM in the series on PC3ML cells (Homo sapiens, PC3-ML). The MEF/DKO cells killed in [4] was 20-35%. For the same compound, the “degraded after 60 days at room temperature” value in [6] was 10%. For the same compound, the Tox with B6Bcl-2 transgenic mice is reported as 4+. In addition, in series [7], the “Microsomal Stability (T = 1 h)” value is on record as 87%. In “Plasma stability”, the “Plasma stability (T = 1 h)” value was determined as 94%. This compound returned a Kd on BCL-XL [8] of 0.12 µM.
For `CC(=O)O.Cc1cc2c(C(C)C)c(O)c(O)c(C=O)c2c(O)c1-c1c(C)cc2c(C(C)C)c(O)c(O)c(C=O)c2c1O` [Gossypol, reference compound], the “1D-^1H NMR” value at BCL-XL [1] was “+++”. On BCL-XL [1] (Table 9), the “1D ^1H-NMR Binding Assay (BCL-XL)” value was “++”. The EC50 in [2] (heading: EC50 H460) worked out at 3 µM; in series [9] (Table 3, heading: EC50 RS11846), 4.2 µM; in series [3] (Table 3, heading: EC50 BP3), 1.42 µM; with H1299 cell line (heading: EC50 H1299), 6 µM; in the series with PC3ML cells, 3.1 µM. In addition, the Tox with B6Bcl-2 transgenic mice was 2+. Besides, the “percentage of maximum reduction in spleen weight (maximal biological activity)” value in the series on B6Bcl-2 transgenic mice (single ip 72 μmol/kg) is listed as 40%. The shrinkage of spleen entry in the series with BCL-2 transgenic mice is “induced shrinkage of spleen to a considerable extent but not significantly”. Besides, the tolerability result with BCL-2 transgenic mice was “well tolerated”.
